PubChem BioAssay AID1259407 (Chemical Carcinogenesis Research Information System (CCRIS), 2018)
The source made the active and inactive calls. How the calls were made is not given here.

Tested on: CCRIS mutagenicity, Ames/micronucleus/aberration tests
Assay: CCRIS mutagenicity studies

In the case of Cc1ccccc1N, the mutagenic call (Test System: AMES SALMONELLA TYPHIMURIUM, Strain/Indicator: TA104, Metabolic Activation: HAMSTER, LIVER, S-9, SODIUM PHENOBARBITAL AND 5,6-BENZOFLAVONE, Method: PREINCUBATION) is reported as “inactive; negative”, the mutagenic call (Test System: AMES SALMONELLA TYPHIMURIUM, Strain/Indicator: TA104, Metabolic Activation: NONE, Method: PREINCUBATION) is reported as “inactive; negative” and the mutagenic call (Test System: AMES SALMONELLA TYPHIMURIUM, Strain/Indicator: TA1535, Metabolic Activation: HAMSTER LIVER S-9, AROCLOR 1254 (10%), Method: PREINCUBATION) is reported as “inactive; negative”. For the same molecule, the mutagenic call (Test System: AMES SALMONELLA TYPHIMURIUM, Strain/Indicator: TA1535, Metabolic Activation: HAMSTER, LIVER, S-9, AROCLOR 1254 (10%), Method: PREINCUBATION) was “inactive; negative”, the mutagenic call (Test System: AMES SALMONELLA TYPHIMURIUM, Strain/Indicator: TA1535, Metabolic Activation: HAMSTER, LIVER, S-9, SODIUM PHENOBARBITAL AND 5,6-BENZOFLAVONE, Method: PREINCUBATION) was “inactive; negative” and the mutagenic call (Test System: AMES SALMONELLA TYPHIMURIUM, Strain/Indicator: TA1535, Metabolic Activation: NONE, Method: PREINCUBATION) was “inactive; negative”. For the same molecule, the mutagenic call (Test System: AMES SALMONELLA TYPHIMURIUM, Strain/Indicator: TA1535, Metabolic Activation: NONE, Method: STANDARD PLATE) was “inactive; negative”, the mutagenic call (Test System: AMES SALMONELLA TYPHIMURIUM, Strain/Indicator: TA1535, Metabolic Activation: RAT LIVER S-9, AROCLOR 1254 (10 OR 30%), Method: PREINCUBATION) was “inactive; negative” and the mutagenic call (Test System: AMES SALMONELLA TYPHIMURIUM, Strain/Indicator: TA1535, Metabolic Activation: RAT, LIVER, S-9, AROCLOR 1254 (10%), Method: PREINCUBATION) was “inactive; negative”. The mutagenic call (Test System: AMES SALMONELLA TYPHIMURIUM, Strain/Indicator: TA1535, Metabolic Activation: RAT, LIVER, S-9, AROCLOR 1254, Method: STANDARD PLATE) was “inactive; negative”, the mutagenic call (Test System: AMES SALMONELLA TYPHIMURIUM, Strain/Indicator: TA1537, Metabolic Activation: HAMSTER, LIVER, S-9, AROCLOR 1254 (10%), Method: PREINCUBATION) was “inactive; negative” and the mutagenic call (Test System: AMES SALMONELLA TYPHIMURIUM, Strain/Indicator: TA1537, Metabolic Activation: HAMSTER, LIVER, S-9, SODIUM PHENOBARBITAL AND 5,6-BENZOFLAVONE, Method: PREINCUBATION) was “inactive; negative”. The mutagenic call (Test System: AMES SALMONELLA TYPHIMURIUM, Strain/Indicator: TA1537, Metabolic Activation: NONE, Method: PREINCUBATION) was “inactive; negative”, the mutagenic call (Test System: AMES SALMONELLA TYPHIMURIUM, Strain/Indicator: TA1537, Metabolic Activation: NONE, Method: STANDARD PLATE) was “inactive; negative” and the mutagenic call (Test System: AMES SALMONELLA TYPHIMURIUM, Strain/Indicator: TA1537, Metabolic Activation: RAT, LIVER, S-9, AROCLOR 1254 (10%), Method: PREINCUBATION) was “inactive; negative”. The mutagenic call (Test System: AMES SALMONELLA TYPHIMURIUM, Strain/Indicator: TA1537, Metabolic Activation: RAT, LIVER, S-9, AROCLOR 1254, Method: STANDARD PLATE) was “inactive; negative”, the mutagenic call (Test System: AMES SALMONELLA TYPHIMURIUM, Strain/Indicator: TA1538, Metabolic Activation: NONE, Method: STANDARD PLATE) was “inactive; negative” and the mutagenic call (Test System: AMES SALMONELLA TYPHIMURIUM, Strain/Indicator: TA1538, Metabolic Activation: RAT, LIVER, S-9, AROCLOR 1254, Method: STANDARD PLATE) was “inactive; negative”. For the same molecule, the mutagenic call (Test System: CHINESE HAMSTER OVARY, Strain/Indicator: CHO/6-THIOGUANINE, Metabolic Activation: HAMSTER EMBRYO CELL-MEDIATED) was “inactive; negative”, the mutagenic call (Test System: CHINESE HAMSTER OVARY, Strain/Indicator: CHO/6-THIOGUANINE, Metabolic Activation: NONE) was “inactive; negative” and the mutagenic call (Test System: CHINESE HAMSTER OVARY, Strain/Indicator: CHO/OUABAIN, Metabolic Activation: NONE) was “inactive; negative”. The mutagenic call (Test System: CHINESE HAMSTER V-79, Strain/Indicator: V-79 (HGPRT)/6-THIOGUANINE, Metabolic Activation: NONE) was “inactive; negative”, the mutagenic call (Test System: CHINESE HAMSTER V-79, Strain/Indicator: V-79 (HGPRT)/6-THIOGUANINE, Metabolic Activation: RAT, LIVER, S-9, PHENOBARBITAL AND BETA-NAPHTHOFLAVONE) was “inactive; negative” and the mutagenic call (Test System: CHINESE HAMSTER V-79, Strain/Indicator: V-79/6-THIOGUANINE, Metabolic Activation: NONE, Method: REPLATING) was “active; positive”. The mutagenic call (Test System: CHINESE HAMSTER V-79, Strain/Indicator: V-79/6-THIOGUANINE, Metabolic Activation: RAT, LIVER, S-9, PHENOBARBITAL AND 5,6-BENZOFLAVONE, Method: REPLATING) was “inactive; negative”, the mutagenic call (Test System: CHINESE HAMSTER V-79, Strain/Indicator: V-79/OUABAIN, Metabolic Activation: NONE) was “inactive; negative” and the mutagenic call (Test System: CHINESE HAMSTER V-79, Strain/Indicator: V-79/OUABAIN, Metabolic Activation: RAT, LIVER, S-15, PHENOBARBITAL AND 5,6-BENZOFLAVONE) was “inactive; negative”. For the same molecule, the mutagenic call (Test System: E. COLI, Strain/Indicator: WP2UVRA/PKM101, Metabolic Activation: HAMSTER, LIVER, S-9, SODIUM PHENOBARBITAL AND 5,6-BENZOFLAVONE, Method: PREINCUBATION) was “inactive; negative”, the mutagenic call (Test System: E. COLI, Strain/Indicator: WP2UVRA/PKM101, Metabolic Activation: NONE, Method: PREINCUBATION) was “inactive; negative” and the mutagenic call (Test System: E. COLI, Strain/Indicator: WP2UVRA, Metabolic Activation: HAMSTER, LIVER, S-9, SODIUM PHENOBARBITAL AND 5,6-BENZOFLAVONE, Method: PREINCUBATION) was “inactive; negative”. The mutagenic call (Test System: E. COLI, Strain/Indicator: WP2 UVRA, Metabolic Activation: NONE, Method: PREINCUBATION) was “inactive; negative”, the mutagenic call (Test System: E. COLI, Strain/Indicator: WP2UVRA, Metabolic Activation: NONE, Method: PREINCUBATION) was “inactive; negative” and the mutagenic call (Test System: E. COLI, Strain/Indicator: WP2 UVRA, Metabolic Activation: RAT, LIVER, S-9, PHENOBARBITAL AND 5,6-BENZOFLAVONE, Method: PREINCUBATION) was “inactive; negative”. The mutagenic call (Test System: MOUSE LYMPHOMA, Strain/Indicator: L5178Y (TK+/+)/OUABAIN, Metabolic Activation: NONE, Method: SUSPENSION/PLATE) was “inactive; negative”, the mutagenic call (Test System: MOUSE LYMPHOMA, Strain/Indicator: L5178Y (TK+/+)/OUABAIN, Metabolic Activation: RAT LIVER S-9, AROCLOR 1254, Method: SUSPENSION/PLATE) was “inactive; negative” and the mutagenic call (Test System: MOUSE LYMPHOMA, Strain/Indicator: L5178Y (TK+/-)/TRIFLUROTHYMIDINE, Metabolic Activation: NONE, Method: SUSPENSION/PLATE) was “inactive; negative”. The mutagenic call (Test System: MOUSE LYMPHOMA, Strain/Indicator: L5178Y (TK+/-)/TRIFLUROTHYMIDINE, Metabolic Activation: RAT LIVER S-9, AROCLOR 1254, Method: SUSPENSION/PLATE) was “inactive; negative”, the mutagenic call (Test System: MOUSE LYMPHOMA, Strain/Indicator: L5178Y (TK+/TK-), Metabolic Activation: NONE, Method: SUSPENSION/PLATE) was “inactive; negative” and the mutagenic call (Test System: MOUSE LYMPHOMA, Strain/Indicator: L5178Y (TK+/TK-), Metabolic Activation: RAT, LIVER, S-9, Method: SUSPENSION/PLATE) was “inactive; negative”. For the same molecule, the mutagenic call (Test System: UDS RAT HEPATOCYTES, Strain/Indicator: THY INCORP, Metabolic Activation: NONE, Method: LIQUID SCINTILLATION COUNTING) was “active; positive”.
